According to patent US6861420B2, “N-substituted 1,2,4,5-tetrahydro-1H-benzo[d]azepine compounds” (Pharmacia & Upjohn Company, priority 2001, dated 2005):

Row | SMILES | melting point
1 | O=C(NC1CN2CCC1CC2)N1CCc2ccccc2CC1 (stereo not shown) | > 120 °C (dec.)
2 | O=C(N[C@@H]1CN2CCC1CC2)N1CCc2ccccc2CC1 | 128 to 132 °C
3 | Cc1ncccc1Oc1ccc(NC(=O)N2CCc3ccccc3CC2)cn1 [Example 1, N-{6-[(2-methylpyridin-3-yl)oxy]pyridin-3-yl}-1,2,4,5-tetrahydro-3H-3-benzazepine-3-carboxamide] | 171 to 173 °C
4 | Cc1ncccc1Oc1ccc(NC(=O)N2CCc3ccc(-n4c(C)ccc4C)cc3CC2)cn1 [Example 2, 7-(2,5-Dimethyl-1H-pyrrol-1-yl)-N-{6-[(2-methylpyridin-3-yl)oxy]pyridin-3-yl}-1,2,4,5-tetrahydro-3H-3-benzazepine-3-carboxamide] | 101 °C (dec.)
5 | O=C(Nc1cccnc1)N1CCc2ccccc2CC1 [Example 5, 1,2,4,5-Tetrahydro-benzo[d]azepine-3-carboxylic acid pyridin-3-ylamide] | 144 to 146 °C
6 | O=C(Nc1cccnc1Cl)N1CCc2ccccc2CC1 [Example 6, N-[2-Chloropyridin-3-yl]-1,2,4,5-tetrahydro-3H-3-benzazepine-3-carboxamide] | 120 to 122 °C
7 | O=C(Nc1ccc(Cl)nc1)N1CCc2ccccc2CC1 [Example 7, N-(6-chloropyridin-3-yl)-1,2,4,5-tetrahydro-3H-3-benzazepine-3-carboxamide] | 170 to 172 °C
8 | COc1ccc(Oc2ccc(NC(=O)N3CCc4ccccc4CC3)cn2)cc1 [Example 9, N-[6-(4-Methoxyphenoxy)pyridin-3-yl]-1,2,4,5-tetrahydro-3H-3-benzazepine-3-carboxamide] | 156 to 157 °C
9 | O=C(Nc1ccc(Oc2ccc(Cl)cc2)nc1)N1CCc2ccccc2CC1 [Example 10, N-[6-(4-Chlorophenoxy)pyridin-3-yl]-1,2,4,5-tetrahydro-3H-3-benzazepine-3-carboxamide] | 135 to 137 °C
10 | O=C(Nc1ccc(Oc2ccccc2F)nc1)N1CCc2ccccc2CC1 [Example 11, N-[6-(2-Fluorophenoxy)pyridin-3-yl]-1,2,4,5-tetrahydro-3H-3-benzazepine-3-carboxamide] | 170 to 172 °C
11 | CC(C)Oc1ccccc1Oc1ccc(NC(=O)N2CCc3ccccc3CC2)cn1 [Example 12, N-[6-(2-isopropoxyphenoxy)pyridin-3-yl]-1,2,4,5-tetrahydro-3H-3-benzazepine-3-carboxamide] | 149 to 152 °C
12 | Cc1cc(Cl)ccc1Oc1ccc(NC(=O)N2CCc3ccccc3CC2)cn1 [Example 13, N-[6-(2-Methyl-4-chlorophenoxy)pyridin-3-yl]-1,2,4,5-tetrahydro-3H-3-benzazepine-3-carboxamide] | 151 to 153 °C
13 | Cc1cc(Oc2ccc(NC(=O)N3CCc4ccccc4CC3)cn2)ccc1Cl [Example 14, N-[6-(3-Methyl-4-chlorophenoxy)pyridin-3-yl]-1,2,4,5-tetrahydro-3H-3-benzazepine-3-carboxamide] | 171 to 173 °C
14 | O=C(Nc1ccc(Oc2ccc(Cl)cc2Cl)nc1)N1CCc2ccccc2CC1 [Example 15, N-[6-(2,4-Dichlorophenoxy)pyridin-3-yl]-1,2,4,5-tetrahydro-3H-3-benzazepine-3-carboxamide] | 154 to 155 °C
15 | Cc1cc(Oc2ccc(NC(=O)N3CCc4ccccc4CC3)cn2)cc(C)c1Cl [Example 16, N-[6-(4-Chloro-3,5-dimethylphenoxy)pyridin-3-yl]-1,2,4,5-tetrahydro-3H-3-benzazepine-3-carboxamide] | 208 to 209 °C
16 | O=C(NC1CCCNC1)N1CCc2ccccc2CC1 (stereo not shown) [Example 17, N-Piperidin-3-yl-1,2,4,5-tetrahydro-3H-3-benzazepine-3-carboxamide] | 214 to 216 °C
